Results reported in patent US20180036289A1 (Gilead Sciences, Inc., priority 2016, published 2018).

Columns and labels:
COLO 205 = assay: Cell proliferation assay (ATPlite), drug with vs without cobicistat; assay type: cell-based; details: COLO 205 cell line; 120 hours incubation
Experimental: (§1) All cell lines were obtained from the American Type Culture Collection (ATCC) Manassas, Va. (US). Master and working cell banks (MCB and WCB) were prepared by subculturing in ATCC-recommended media and freezing protocols (www.atcc.org). Cell line stocks for the assays were prepared from the WCB. The MCB, WCBs and assay stocks were prepared within respectively 3, 6 and 9 passages of the ATCC vial.
(§2) Solid powders of reference compounds were weighed on a calibrated balance and dissolved in 100% DMSO. DMSO samples were stored at room temperature. At the day of the experiment, the compound stock was diluted in 3.16 fold steps in 100% DMSO to obtain a 9-point dilution series. This was further diluted 31.6 times in 20 mM sterile Hepes buffer pH 7.4. A volume of 5 μl was transferred to the cells to generate a test concentration range from 3.16×10^−5M to 3.16×10^−9 M in duplicate. The final DMSO concentration during incubation was […] in all wells.
(§3) An assay stock was thawed and diluted in its ATCC recommended medium and dispensed in a 384-well plate, depending on the cell line used, at a concentration of 200-3200 cells per well in 45 μl medium. For each used cell line the optimal cell density is used. The margins of the plate were filled with phosphate-buffered saline. Plated cells were incubated in a humidified atmosphere of 5% CO2 at 37° C. After 24 hours, 5 μl of compound dilution was added and plates were further incubated for another 120 hours. After 120 hours, 25 μl of ATPlite 1Step™ (PerkinElmer) solution was added to each well, and subsequently shaken for 2 minutes. After 10 minutes of incubation in the dark, the luminescence was recorded on an Envision multimode reader (PerkinElmer).
(§4) IC50s were calculated by non-linear regression using IDBS XLfit 5. The percentage growth after 120 h (%-growth) was calculated as follows: 100%×(luminescencet=120h/luminescenceuntreated,t=120h). This was fitted to the ^10log compound concentration (conc) by a 4-parameter logistics curve: %−growth=bottom+(top−bottom)/(1+10^(log IC50-conc)*hill)), where hill is the Hill-coefficient, and bottom and top the asymptotic minimum and maximum cell growth that the compound allows in that assay.

DoTc2 4510 = assay: as above; assay type: cell-based; details: DoTc2 4510 cell line; 120 hours incubation
Experimental: as §1, §2, §3, §4

RPMI-7951 = assay: as above; assay type: cell-based; details: RPMI-7951 cell line; 120 hours incubation
Experimental: as §1, §2, §3, §4

FaDu = assay: as above; assay type: cell-based; details: FaDu cell line; 120 hours incubation
Experimental: as §1, §2, §3, §4

SUP-T1 = assay: as above; assay type: cell-based; details: SUP-T1 cell line; 120 hours incubation
Experimental: as §1, §2, §3, §4

786-O = assay: as above; assay type: cell-based; details: 786-O cell line; 120 hours incubation
Experimental: as §1, §2, §3, §4

A388 = assay: as above; assay type: cell-based; details: A388 cell line; 120 hours incubation
Experimental: as §1, §2, §3, §4

MeWo = assay: as above; assay type: cell-based; details: MeWo cell line; 120 hours incubation
Experimental: as §1, §2, §3, §4

MOLT-4 = assay: as above; assay type: cell-based; details: MOLT-4 cell line; 120 hours incubation
Experimental: as §1, §2, §3, §4

DLD-1 = assay: as above; assay type: cell-based; details: DLD-1 cell line; 120 hours incubation
Experimental: as §1, §2, §3, §4

SK-N-AS = assay: as above; assay type: cell-based; details: SK-N-AS cell line; 120 hours incubation
Experimental: as §1, §2, §3, §4

K-562 = assay: as above; assay type: cell-based; details: K-562 cell line; 120 hours incubation
Experimental: as §1, §2, §3, §4

A-549 = assay: as above; assay type: cell-based; details: A-549 cell line; 120 hours incubation
Experimental: as §1, §2, §3, §4

A-498 = assay: as above; assay type: cell-based; details: A-498 cell line; 120 hours incubation
Experimental: as §1, §2, §3, §4

SW948 = assay: as above; assay type: cell-based; details: SW948 cell line; 120 hours incubation
Experimental: as §1, §2, §3, §4

A-427 = assay: as above; assay type: cell-based; details: A-427 cell line; 120 hours incubation
Experimental: as §1, §2, §3, §4

BxPC-3 = assay: as above; assay type: cell-based; details: BxPC-3 cell line; 120 hours incubation
Experimental: as §1, §2, §3, §4

MIA PaCa-2 = assay: as above; assay type: cell-based; details: MIA PaCa-2 cell line; 120 hours incubation
Experimental: as §1, §2, §3, §4

A-704 = assay: as above; assay type: cell-based; details: A-704 cell line; 120 hours incubation
Experimental: as §1, §2, §3, §4

Hs 578T = assay: as above; assay type: cell-based; details: Hs 578T cell line; 120 hours incubation
Experimental: as §1, §2, §3, §4

PA-1 = assay: as above; assay type: cell-based; details: PA-1 cell line; 120 hours incubation
Experimental: as §1, §2, §3, §4

SHP-77 = assay: as above; assay type: cell-based; details: SHP-77 cell line; 120 hours incubation
Experimental: as §1, §2, §3, §4

OVCAR-3 = assay: as above; assay type: cell-based; details: OVCAR-3 cell line; 120 hours incubation
Experimental: as §1, §2, §3, §4

U-2 OS = assay: as above; assay type: cell-based; details: U-2 OS cell line; 120 hours incubation
Experimental: as §1, §2, §3, §4

T98G = assay: as above; assay type: cell-based; details: T98G cell line; 120 hours incubation
Experimental: as §1, §2, §3, §4

SR = assay: as above; assay type: cell-based; details: SR cell line; 120 hours incubation
Experimental: as §1, §2, §3, §4

Daoy = assay: as above; assay type: cell-based; details: Daoy cell line; 120 hours incubation
Experimental: as §1, §2, §3, §4

A-204 = assay: as above; assay type: cell-based; details: A-204 cell line; 120 hours incubation
Experimental: as §1, §2, §3, §4

BT-549 = assay: as above; assay type: cell-based; details: BT-549 cell line; 120 hours incubation
Experimental: as §1, §2, §3, §4

TT = TT cell line; 120 hours incubation
Experimental: as §1, §2, §3, §4

With `COc1cccc2c1C(=O)c1c(O)c3c(c(O)c1C2=O)C[C@@](O)(C(=O)CO)C[C@@H]3O[C@H]1C[C@H](N)[C@H](O)[C@H](C)O1` [doxorubicin] the “Fold change in IC50 (IC50 [Drug + Cobicistat]/IC50 [Drug])” value (from here on “Fold change in IC50”) (COLO 205) was 2.3 fold, the “Fold change in IC50” value (DoTc2 4510) was 1.7 fold and the “Fold change in IC50” value (RPMI-7951) was 2.3 fold. For the same compound, the “Fold change in IC50” value (FaDu) was 1.7 fold, the “Fold change in IC50” value (SUP-T1) was 2.0 fold and the “Fold change in IC50” value (786-O) was 2.3 fold. The “Fold change in IC50” value (A388) was 1.7 fold, the “Fold change in IC50” value (MeWo) was 2.1 fold and the “Fold change in IC50” value (MOLT-4) was 1.9 fold. For the same compound, the “Fold change in IC50” value (DLD-1) was 1.4 fold, the “Fold change in IC50” value (SK-N-AS) was 2.3 fold and the “Fold change in IC50” value (K-562) was 2.5 fold. For the same compound, the “Fold change in IC50” value (A-549) was 0.8 fold, the “Fold change in IC50” value (A-498) was 1.2 fold and the “Fold change in IC50” value (SW948) was 2.5 fold. The “Fold change in IC50” value (A-427) was 1.5 fold, the “Fold change in IC50” value (BxPC-3) was 2.2 fold and the “Fold change in IC50” value (MIA PaCa-2) was 2.2 fold. The “Fold change in IC50” value (A-704) was 1.3 fold, the “Fold change in IC50” value (Hs 578T) was 1.7 fold and the “Fold change in IC50” value (PA-1) was 3.0 fold. For the same compound, the “Fold change in IC50” value (SHP-77) was 2.5 fold, the “Fold change in IC50” value (OVCAR-3) was 2.5 fold and the “Fold change in IC50” value (U-2 OS) was 3.0 fold. For the same compound, the “Fold change in IC50” value (T98G) was 1.4 fold, the “Fold change in IC50” value (SR) was 1.8 fold and the “Fold change in IC50” value (Daoy) was 1.6 fold. For the same compound, the “Fold change in IC50” value (A-204) was 2.5 fold, the “Fold change in IC50” value (BT-549) was 1.5 fold and the “Fold change in IC50” value (TT) was 1.1 fold.
